The text below walks through data of article PMC4645160, “Targeting kinases with anilinopyrimidines: discovery of N-phenyl-N’-[4-(pyrimidin-4-ylamino)phenyl]urea derivatives as selective inhibitors of class III receptor tyrosine kinase subfamily” (Scientific Reports, 2015).

The subject of one test is LoVo cells. Description: MTT cytotoxicity assay, LoVo colon carcinoma cells. Format: cell-based. The settings on record: Homo sapiens, MTT test, 72 h, read-out: LoVo IC50 (μM) ± SD. The protocol: (§1) The cytotoxic profile of 19 and 27 was assessed on a wider panel of human tumor cell lines including also examples of breast (MCF-7), cervical (A431), colorectal (HCT-15), and ovarian (2008) cancers as well as melanoma (A375), besides lung (A549) and pancreatic (BxPC3) cancer cells. IC50 values, calculated from the dose-survival curves obtained after 72 h of drug treatment from the MTT test, are reported in Table 2. […] Both compounds were endowed with a cytotoxic potency higher than that of SU, eliciting IC50 values in the low micromolar range.
(§2) All compounds, except derivative 27, were dissolved in DMSO just before the experiment, and a calculated amount of drug solution was added to the cell growth medium to a final solvent concentration of 0.5%, which had no discernible effect on cell killing. Compound 27 was dissolved in a 0.9% NaCl solution just before the experiment.
(§3) Human lung (A549), breast (MCF-7), pancreas (BxPC3), and colon (LoVo) carcinoma cell lines along with melanoma (A375) were obtained from American Type Culture Collection (ATCC, Rockville, MD). Human non-tumor embryonic kidney HEK293 cells were obtained from European Collection of Cell Cultures (ECACC, Salisbury, UK). Human cervical carcinoma A431cells were kindly provided by Prof. F. Zunino (Division of Experimental Oncology B, Istituto Nazionale dei Tumori, Milan, Italy). Human ovarian cancer 2008 cells were kindly provided by Prof. G. Marverti (Dept. of Biomedical Science of Modena University, Italy). […]
(§4) The growth inhibitory effect towards human cell lines was evaluated by means of MTT (tetrazolium salt reduction) assay. […] After overnight incubation, the inhibition of cell growth induced by the tested complexes was detected by measuring the absorbance of each well at 570 nm using a Bio-Rad 680 microplate reader (Bio-Rad, Hercules, CA). Mean absorbance for each drug dose was expressed as a percentage of the control untreated well absorbance and plotted vs drug concentration.
Background: Formazan colour is commonly taken as a measure of viable cells.

The test system of the next test is 2008 cells. Kind of test: MTT cytotoxicity assay, 2008 ovarian cancer cells. Format: cell-based. The settings on record: Homo sapiens; MTT test, 72 h; read-out: 2008 IC50 (μM) ± SD. How it is done: as §1, §2, §3, §4
The next test addresses T1, PDGFRβ (Homo sapiens, UniProt P09619).
T1 construct: purchased DiscoverX (KinomeScan service)
Description: KinomeScan Kd determination, PDGFRβ. Format: binding. As to conditions: for KdRTK/KdKIT, PDGFRβ: Kd PDGFRβ over Kd KIT; for Kd: KinomeScan. How it is done: (§5) The compounds were evaluated using the KinomeScan™ platform (http://www.discoverx.com/services/drug-discovery-development-services/kinase-profiling/kinomescan), that measures the ability of the test compound to disrupt the complex between a high affinity ATP-mimic probe immobilized on a solid support and the kinase of interest. The KinomeScan is a very helpful technology for the fast and reliable screening of a number of compounds against a wide and customizable panel of kinases. Besides, it is not based on the use of hazardous radioactive ^32P-ATP and has a very low rate of false positive (<1%)[44]. The screening platform outputs a “Percent of Control” (POC) value, statistically correlated to the dissociation constant (Kd) value (http://www.discoverx.com/tools-resources/leadhunter-study-reports-data-analysis), for each pair of kinase/ligand. The POC is calculated as reported in equation (1): […]
(§6) The ability of compounds 19 and 27 to bind the class III RTK members was measured (Table 2; see also Figs S3 and S4 for dose/response curves).
(§7) Figure S3. Dose/response curve for compound 19 against tested kinases for Kd determination. The amount of kinase measured by qPCR (Signal; y-axis) is plotted against the corresponding compound concentration in nM in log10 scale (x-axis). Data points marked with an "x" were not used for Kd determination.
(§8) (1 picture or pasted object on this page, not shown here)
(§9) Figure S4. Dose/response curve for compound 27 against tested kinases for Kd

The subject of the next test is HEK293 cells. Kind of test: MTT cytotoxicity assay, non-tumor HEK293 cells. Format: cell-based, human. As to conditions: for IC50: Homo sapiens, HEK293, MTT test, 72 h, non-tumor cells, read-out: HEK293 IC50 (μM) ± SD. The protocol: F. Zunino (Division of Experimental Oncology B, Istituto Nazionale dei Tumori, Milan, Italy).
The growth inhibitory effect towards human cell lines was evaluated by means of MTT (tetrazolium salt reduction) assay. […] Triplicate cultures were established for each treatment.

A further test addresses T2, CSF1R (Homo sapiens, UniProt P07333).
T2 construct: purchased DiscoverX (KinomeScan service)
Kind of test: KinomeScan Kd determination, CSF1R. The settings on record: for KdRTK/KdKIT, CSF1R: Kd CSF1R over Kd KIT; for Kd: KinomeScan. Format: binding. The protocol:
as §5, §6, §7, §8, §9

In a further test the test system is A549 cells. Description: MTT cytotoxicity assay, A549 lung cancer cells. Format: cell-based, human. The settings on record: for IC50: Homo sapiens, A549, 72 h, MTT test, 72 h of drug treatment, read-out: A549 IC50 (μM) ± SD. The protocol:
Compounds active against at least one kinase among EGFR and class III RTKs were evaluated for their cytotoxic properties against two different human cancer cell lines, namely non small cells A549 lung cancer cells (sensitive to EGFR inhibitors)[46] and pancreatic BxPC3 adenocarcinoma (sensitive to both PDGFRβ and EGFR inhibitors)[47][48] cells. […] The results, expressed as IC50 values (μM) calculated from the dose-survival curves obtained after 72 h of drug treatment from the MTT test, are reported in Table 1.
as §2
Human lung (A549), breast (MCF-7), pancreas (BxPC3), and colon (LoVo) carcinoma cell lines along with melanoma (A375) were obtained from American Type Culture Collection (ATCC, Rockville, MD). Human non-tumor embryonic kidney HEK293 cells were obtained from European Collection of Cell Cultures (ECACC, Salisbury, UK). Human cervical carcinoma A431cells were kindly provided by Prof. F. Zunino (Division of Experimental Oncology B, Istituto Nazionale dei Tumori, Milan, Italy). Human ovarian cancer 2008 cells were kindly provided by Prof. G. Marverti (Dept. of Biomedical Science of Modena University, Italy). Cell lines were maintained in the logarithmic phase at 37 °C in a 5% carbon dioxide atmosphere using the following culture media containing 10% fetal calf serum (Euroclone, Milan, Italy), antibiotics (50 units ∙ mL^−1 penicillin and 50 μg ∙ mL^−1 streptomycin) and 2 mM l-glutamine: i) RPMI-1640 medium (Euroclone) for MCF-7, A431, BxPC3 and 2008 cells; ii) F-12 HAM’S (Sigma Chemical Co.) for A549 and LoVo cells; iii) D-MEM medium (Euroclone) for HEK293 cells.
The growth inhibitory effect towards human cell lines was evaluated by means of MTT (tetrazolium salt reduction) assay. Briefly, 3–8 ∙ 10^3 cells/well, dependent upon the growth characteristics of the cell line, were seeded in 96-well microplates in growth medium (100 μL) and then incubated at 37 °C in a 5% carbon dioxide atmosphere. After 24 h, the medium was removed and replaced with a fresh one containing the test compound at the appropriate concentration. Triplicate cultures were established for each treatment. After 72 h, each well was treated with 10 μL of a 5 mg ∙ mL-1 MTT (3-(4,5-dimethylthiazol-2-yl)-2,5-diphenyltetrazolium bromide) saline solution, and after 5 h additional incubation, 100 μL of a sodium dodecylsulfate (SDS) solution in HCl 0.01 M were added. After overnight incubation, the inhibition of cell growth induced by the tested complexes was detected by measuring the absorbance of each well at 570 nm using a Bio-Rad 680 microplate reader (Bio-Rad, Hercules, CA). Mean absorbance for each drug dose was expressed as a percentage of the control untreated well absorbance and plotted vs drug concentration.

Like-named read-outs stand apart in the source and are kept apart here.

T2 sequence (P07333 20-972): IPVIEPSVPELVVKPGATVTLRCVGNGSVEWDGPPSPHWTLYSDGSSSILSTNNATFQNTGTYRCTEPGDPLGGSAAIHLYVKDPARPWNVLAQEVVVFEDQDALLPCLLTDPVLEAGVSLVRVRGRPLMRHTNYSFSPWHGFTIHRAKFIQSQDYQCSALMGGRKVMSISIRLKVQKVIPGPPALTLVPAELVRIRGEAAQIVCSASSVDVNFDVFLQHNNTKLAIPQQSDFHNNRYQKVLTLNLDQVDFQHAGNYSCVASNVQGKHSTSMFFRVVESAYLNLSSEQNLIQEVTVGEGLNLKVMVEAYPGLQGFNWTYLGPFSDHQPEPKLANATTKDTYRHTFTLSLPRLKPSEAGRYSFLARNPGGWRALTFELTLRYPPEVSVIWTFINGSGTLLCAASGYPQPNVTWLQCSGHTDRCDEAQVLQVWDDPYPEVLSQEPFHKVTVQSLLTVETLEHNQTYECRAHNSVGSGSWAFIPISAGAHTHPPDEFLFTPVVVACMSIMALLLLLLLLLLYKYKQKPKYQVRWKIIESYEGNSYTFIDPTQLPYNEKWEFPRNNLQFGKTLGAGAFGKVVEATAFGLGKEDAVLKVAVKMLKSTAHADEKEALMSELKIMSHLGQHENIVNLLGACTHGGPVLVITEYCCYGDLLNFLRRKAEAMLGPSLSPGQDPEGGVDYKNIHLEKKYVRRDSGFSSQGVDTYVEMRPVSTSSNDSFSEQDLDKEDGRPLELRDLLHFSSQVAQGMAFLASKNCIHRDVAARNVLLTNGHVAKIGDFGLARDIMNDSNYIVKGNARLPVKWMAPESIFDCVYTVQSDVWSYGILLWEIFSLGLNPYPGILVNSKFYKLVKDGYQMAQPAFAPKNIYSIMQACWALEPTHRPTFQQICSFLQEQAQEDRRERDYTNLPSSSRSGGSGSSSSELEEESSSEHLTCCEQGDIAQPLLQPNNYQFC
T1 sequence (P09619 33-1106): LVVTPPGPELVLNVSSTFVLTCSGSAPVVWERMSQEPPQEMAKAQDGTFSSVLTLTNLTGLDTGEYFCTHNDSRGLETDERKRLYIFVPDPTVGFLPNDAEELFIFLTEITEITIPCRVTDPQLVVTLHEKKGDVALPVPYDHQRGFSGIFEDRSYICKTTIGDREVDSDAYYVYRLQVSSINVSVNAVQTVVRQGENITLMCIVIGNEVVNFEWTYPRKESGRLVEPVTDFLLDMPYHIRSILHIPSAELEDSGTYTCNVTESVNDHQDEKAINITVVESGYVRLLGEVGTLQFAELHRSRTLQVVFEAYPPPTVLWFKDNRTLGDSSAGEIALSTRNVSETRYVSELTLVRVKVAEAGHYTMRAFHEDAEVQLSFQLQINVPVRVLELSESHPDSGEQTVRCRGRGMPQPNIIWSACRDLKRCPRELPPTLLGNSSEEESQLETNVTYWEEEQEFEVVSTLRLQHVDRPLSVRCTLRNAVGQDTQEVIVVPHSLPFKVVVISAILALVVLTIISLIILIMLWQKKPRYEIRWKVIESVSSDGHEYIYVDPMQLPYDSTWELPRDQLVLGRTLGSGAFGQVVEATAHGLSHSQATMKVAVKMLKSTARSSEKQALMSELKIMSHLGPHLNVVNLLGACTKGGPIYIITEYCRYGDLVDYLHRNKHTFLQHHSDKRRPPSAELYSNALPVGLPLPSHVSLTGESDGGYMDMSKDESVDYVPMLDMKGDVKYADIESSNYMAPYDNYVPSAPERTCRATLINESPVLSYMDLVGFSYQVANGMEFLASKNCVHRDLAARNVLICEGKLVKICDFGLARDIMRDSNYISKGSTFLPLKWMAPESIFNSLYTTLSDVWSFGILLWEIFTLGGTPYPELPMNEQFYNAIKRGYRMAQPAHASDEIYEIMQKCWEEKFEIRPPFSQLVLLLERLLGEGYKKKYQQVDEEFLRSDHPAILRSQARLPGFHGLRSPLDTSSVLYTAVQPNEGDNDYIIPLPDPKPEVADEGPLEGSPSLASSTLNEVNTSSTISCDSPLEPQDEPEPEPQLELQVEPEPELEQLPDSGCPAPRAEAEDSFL

In the case of `O=C(Nc1ccccc1)Nc1ccc(Nc2cc(-c3ccccc3)ncn2)cc1` [Compound 19], the half-maximal inhibitory concentration (IC50) came to 7.45 ± 1.53 µM in the test on LoVo cells, 1.98 ± 0.75 µM in the test on 2008 cells, 7.33 ± 1.75 µM in the test with HEK293 cells and 3.16 ± 1.12 µM with A549 cells. Besides, the “KdRTK/KdKIT, PDGFRβ” value at PDGFRβ worked out at 4. The Kd on PDGFRβ worked out at 80 nM; on CSF1R (read-out: Kd (nM) CSF1R) it was 2900 nM. For the same compound, the “Selectivity Index” value in the test with HEK293 cells (IC50 toward non cancerous HEK293 cells divided by the average IC50 for the malignant cells (A549, BxPC3)) is listed as 3.84. Besides, the “Selectivity index, folds higher than that calculated with SU” value in the test with HEK293 cells (SI of compound versus SI of SU) is recorded as “approximately 1.5”. In addition, the “KdRTK/KdKIT, CSF1R” value at CSF1R was found to be 132. The “Potency relative to SU (A549)” value with A549 cells (ratio between IC50 of sunitinib and IC50 of tested compound, A549) came out at 1.97.
As to `O=C(CN1CCOCC1)Nc1cccc(-c2cc(Nc3ccc(NC(=O)Nc4ccccc4)cc3)ncn2)c1` [Compound 27], the IC50 in the test on LoVo cells was 7.76 ± 1.28 µM; in the test on 2008 cells it was 1.82 ± 0.73 µM; in the test on HEK293 cells, 10 µM; in the test with A549 cells it was 3.11 ± 1.09 µM. Besides, the “Potency improvement Kd19/Kd27, PDGFRβ” value at PDGFRβ (27 versus 19) was 1.1. Further, on PDGFRβ, the “KdRTK/KdKIT, PDGFRβ” value was determined as 7. For the same compound, the dissociation constant (Kd) at PDGFRβ is 70 nM; at CSF1R (bound stated, read-out: Kd against CSF1R), more than 1000 nM; at CSF1R (read-out: Kd (nM) CSF1R) it was 1100 nM. The “Potency improvement Kd19/Kd27, CSF1R” value at CSF1R (27 versus 19) is 2.6. In addition, the “KdRTK/KdKIT, CSF1R” value at CSF1R is on record as 110.

As a reminder, the IC50 is the concentration that gives 50% inhibition. One may read the Kd as a measure of binding affinity in units of concentration.
